Assay results from a melting point compilation (Tetko et al.; mined from patent text by program, amines drawn as free bases though some values may be those of a salt).

| SMILES | melting point |
| --- | --- |
| COc1cc(C(=O)N2Cc3ccc(C(=O)NCc4ccc5c(c4)OCCO5)n3Cc3ccccc32)ccc1-c1ccccc1C | 153 to 155 °C |
| Cn1c(=O)n(CC(=O)O)c(=O)c2cc([N+](=O)[O-])ccc21 | 217 to 220 °C |
| COc1c(C2CCN(CCCCNC(=O)c3ccc(-c4ccc(NS(=O)(=O)CC(F)(F)F)cc4)cc3)CC2)ccc2c1CCCC2 | 182 to 184 °C |
| Cc1ccc(S(=O)(=O)Nc2ccc(C#N)cc2Cl)cc1 | 186 to 187 °C |
| O=S(=O)(Nc1ccc(C2COc3cc(O)c(O)cc3C2)cc1)c1ccccc1 (stereo unspecified) | 152 to 154 °C |
| O=C(NC=CC1OC1CCCNC(=O)c1ccc(OC(F)(F)F)cc1)c1ccc(OC(F)(F)F)cc1 (stereo unspecified) | 121 to 123 °C |
| Cc1ccc(C(=O)Nc2cc(-n3cncc3C)cc(C(F)(F)F)c2)cc1Nc1nccc(-c2cccnc2)n1 | 231 to 233 °C |
| O=C(c1ccc(F)cc1)C1(n2cncn2)CC1 | 73 to 75 °C |
| Cc1ncc(C#N)c(Nc2ccc3[nH]ccc3c2C)c1-c1cc2cc(CN3CCN(C)CC3)ccc2o1 | 218 to 220 °C |
| C1=CCN(C(c2ccccc2)c2ccccc2)C1 | 90 to 91 °C |
| CONC(=O)CON1C(=O)c2ccccc2C1=O | 179 °C |
| CC1(COCCCCCCOc2ccc(C(=O)O)cc2)COC1 | 58.5 °C |
| COCCC1=C(C)C(=Cc2ccc(S(N)(=O)=O)cc2)c2ccc(OC)cc21 | 140 °C |
| COc1ccc(/C=C(\C#N)c2cccc(Cl)c2)cc1OC1CCCC1 | 98 to 100 °C |
| COC(=O)C(c1ccc(Cl)cc1)c1c2ccccc2nc2ccccc12 (stereo unspecified) | 192 to 193 °C |
| Cc1c(Cl)ccc(S(C)(=O)=O)c1Cl | 125 to 127 °C |
| Cc1cc(OC(=O)c2ccccc2)c2ccccc2c1OCc1ccccc1 | 179 to 180 °C |
| CC(=O)N1c2ccccc2CC1c1cc(Cl)ccc1NC(=O)C(C)(C)C (stereo unspecified) | 131 to 134 °C |
| CCC(CC)Nc1cc(C)nc(Nc2c(C)cc(C)cc2C)c1CC(C(=O)OC)C(=O)OC | 136 to 138 °C |
| Oc1nnc2ccccc2n1 | 204 to 206 °C |
| CCOC(=O)c1cn(Cc2ccccc2OC)c2sc(-c3ccc(OC)cc3)c(C)c2c1=O | 165 to 167 °C |
| CC(=O)Nc1nsc2ccc(NS(=O)(=O)c3cc(Cl)ccc3Cl)cc12 | 169 to 172 °C |
| O=C(Cc1ccc(Cl)cc1)OCCCOc1c(Cl)cc(OCC=C(Cl)Cl)cc1Cl | 62.2 °C |
| COC(=O)c1ncn2c1CN(C)C(=O)c1ccccc1-2 | 212 to 214 °C |
| CC(C)OCc1nc(C(C)(C)O)c(C(=O)OC(C)C)[nH]1 | 154 to 155 °C |
| CCCCCCCCN1N=C(C)CC1=O | 59 °C |
| CCC(Oc1ccccc1)c1nnc(NC(=O)N(C)CC(OC)OC)s1 (stereo unspecified) | 84 to 85 °C |
| CC1CC2(C)C(CCC3C4CCC(C5(C)OCCO5)C4(C)CC(=O)C32)CC1=O (stereo unspecified) | 168 to 169 °C |

| SMILES | melting point |
| --- | --- |
| Cc1c(C)c2c(c(C)c1NC(=O)NC(C)(C)CO)C(c1ccc(C(C)C)cc1)CO2 (stereo unspecified) | 157 to 158 °C |
| Cc1cc(C(=O)c2sc(Nc3ccc(N4CCN(C)CC4)cc3)nc2N)c(C)s1 | 205 to 206 °C |
| CC(C)(C)c1cc(C(=O)Nc2cccc(C(=O)O)c2)cc(C(C)(C)C)c1O | 279 to 280 °C |
| NS(=O)(=O)c1ncccc1S | 102 to 104 °C |
| CC(NC(=O)Cc1cc(F)cc(F)c1)C(=O)C1(N)N=C(N2CCCCC2)c2ccccc2N(C)C1=O (stereo unspecified) | 154 to 160 °C |
| CCSCc1cc(O)nc(N(C)C)n1 | 119 to 121 °C |
| CC1COc2c(F)c(F)cc(C(=O)O)c2N1 (stereo unspecified) | 200 to 202 °C |
| Cc1ccnc(NC#N)n1 | 203 °C |
| CCN(CC)c1ccc2ccc(=O)oc2c1 | 87.5 to 88 °C |
| O=C(O)c1cc(C(F)(F)F)c(F)c(F)c1F | 82 to 84 °C |
| CC(=O)N1CCc2c(sc(C)c2C(=O)CCN2CCC(c3noc4cc(F)ccc34)CC2)C1 | 180 to 182 °C |
| Cc1nn(-c2ccc(C(=N)N)cc2)c(=O)n1-c1ccc(CCC(=O)O)cc1 | 303 to 305 °C |
| CNC(=NCCSCc1cc(OC)ccn1)NC#N | 121 to 122 °C |
| CN1C(=O)C(c2ccc(OC(F)F)cc2)(c2cccc(CCCC(F)(F)F)c2)N=C1N (stereo unspecified) | 70 °C |
| Oc1ccc(C=C(Cl)Cl)cc1 | 90 to 91 °C |
| S=C1NCSc2ccsc21 | 136 to 138 °C |
| CC(C)(C)OC(=O)N1CC(CCl)c2c1cc([N+](=O)[O-])c1ccccc21 (stereo unspecified) | 168 to 169 °C |
| Cc1ccc(-c2ccc(Sc3ccccc3)s2)cc1C | 77 to 78 °C |
| NC(CN1C(=O)C2(COc3cc4c(cc32)OCO4)c2c(Cl)cccc21)=NO (stereo unspecified) | 180 to 185 °C |
| CC(C)(C)OC(=O)N(C(=O)OC(C)(C)C)c1cc(-c2ccc(N)cc2)n(C(=O)OC(C)(C)C)n1 | 84 to 85 °C |
| Cc1cc(=O)c(O)c(C)o1 | 161 to 163 °C |
| CCCn1c(=O)c2[nH]c(/C=C/c3ccc4c(c3)OCO4)nc2n(CCC)c1=O | > 270 °C |
| NCCNc1cc(Cl)cc(NCCN)c1[N+](=O)[O-] | 113 °C |
| Cc1nc2c(ncn2COCCO)c(=S)[nH]1 | 190 to 193 °C |
| CCOC(=O)NCC(=O)O | 55 to 58 °C |
| CCn1c(=O)c2c(nc(/C=C/c3ccc(OCC(C)=O)c(OC)c3)n2C)n(CC)c1=O | 206 °C |
| Cc1cc2cn[nH]c2c(C(=O)NC(C)C)c1NC(=O)c1cc(Br)nn1-c1ncccc1Cl | 163 to 166 °C |

The remaining lines, values ahead:

| melting point | SMILES |
| --- | --- |
| 144 to 145 °C | O=c1c2cccnc2c(-c2cccc(Cl)c2)nn1-c1ccccc1 |
| 229 to 230 °C | CC(=O)Nc1ccc2oc(-c3ccc(OCc4ccccc4)c(OCc4ccccc4)c3)c(O)c(=O)c2c1 |
| 71 to 73 °C | COc1ccc2cc([C@H](C)C(=O)OCC(=O)N(C)CC(=O)OCCO[N+](=O)[O-])ccc2c1 |
| 153 to 157 °C | Cc1nc(N)nc(N)c1C#CC(C)(C)c1ccc(C(F)(F)F)cc1 |
| 166 to 168 °C | Nc1[nH]ncc1-c1cccc(N2CCOCC2)c1 |
| 243 to 245 °C | CCCn1c(=O)c2c(nc(C=Cc3cc(OC)c(OC)c(OC)c3S(N)(=O)=O)n2C)n(CCC)c1=O |
| 73 to 74.5 °C | COC(=O)C1(C)Cc2c(OC)ccc(OC)c2CO1 (stereo unspecified) |
| 177 to 180 °C | COc1ccc2cc(CC(=O)NO)ccc2c1 |
| 196 to 198 °C | CC(C)(C)OC(=O)NCCCn1cnc2c(N)nc3ccccc3c21 |
| 72 to 73 °C | Cn1nc(-c2ncc(Cl)cc2F)cc1OCC(F)(F)F |
| 246 to 249 °C | COc1cccc(Cc2ccc(-c3cnn4c(O)ccnc34)cc2)c1 |
| 89 to 91 °C | Cc1cc(-c2ccccc2)co1 |
| 142 °C | CCCCc1c(C(=O)c2ccc(OC)cc2)[nH]c2ccc([N+](=O)[O-])cc12 |
| 90 to 92 °C | CCCCc1nc2c(N)nc(C)c(C)c2n1CC(C)(C)NS(C)(=O)=O |
| 65 °C | O=C(NCc1ccccc1)C1Cc2ccccc2N1S(=O)(=O)c1ccc(-c2ccc(F)cc2)cc1 (stereo unspecified) |
| 107 to 108 °C | O=c1c2ccccc2ncn1C1CCN(CCCc2ccccc2)CC1 |
| 235 to 237 °C | c1ccc(COc2ccc(Nc3ncnc4ncccc34)cc2)cc1 |
| 144 to 145 °C | CCOC(=O)C(=CNc1nnc(-c2cccnc2)s1)C(=O)OCC |
| 125 to 127 °C | CS(=O)(=O)c1ccc(-n2nc(C(F)(F)F)cc2-c2ccc(-c3cscn3)cc2)cc1F |
| 142 °C | COC(=O)CCc1cc2cc(Cl)c(Cl)cc2[nH]1 |
| 172 to 174 °C | O=C(C1CCN(c2c(Cl)cncc2Cl)CC1)N1CCOCC1 |
| 51 to 53 °C | COc1cc(C=O)cc(F)c1OC |
| 120 to 124 °C | COc1cc(OC2CCN(C(=O)Cc3c[nH]cn3)CC2)ccc1CC(=O)N1CCN(c2ccccc2C)CC1C(N)=O (stereo unspecified) |

| melting point | SMILES |
| --- | --- |
| 55 to 56 °C | CCCCCC(=O)N1C(CCCCC)NC(=O)CC1C(=O)O (stereo unspecified) |
| 175 °C | CCC(CC)(CC(=O)Nc1cccc(OCc2ccc3cc(C)ccc3n2)c1)C(=O)O |
| 164 to 166 °C | COc1ccc2c(c1)C(=O)NCCS2 |
| 255 to 257 °C | C[C@@H]1CN(C(=O)N(c2ccccc2)c2ccccc2)[C@@H](C)CN1C(=O)N(c1ccccc1)c1ccccc1 |
| 140 °C | CC#CCOc1ccc(S(=O)(=O)C(C(=O)NO)C2CCNCC2)cc1 (stereo unspecified) |
| 210 °C | CNc1ccc(CC(=O)C(=O)O)cc1 |
| 187 to 188 °C | O=C(O)[C@H](Cc1ccccc1)Nc1c(NC(c2ccccc2)c2ccccc2)c(=O)c1=O |
| 131 °C | Clc1ccc(C(c2ccccc2)c2cn[nH]c2)c(Cl)c1 (stereo unspecified) |
| 166 °C | Cc1cc(-n2ccnc2)c2cccc(OCc3c(Cl)ccc(S(=O)(=O)N4CC[C@@H](O)C4)c3Cl)c2n1 |
| 111 to 113 °C | CN=C(N)Nc1nc(-c2cccc(C(=O)NC)c2)cs1 |
| 93 to 94 °C | CCc1cc(O)n2ccnc2n1 |
| 225 to 227 °C | CC(C)(C)OC(=O)N[C@@H](Cc1ccccc1)[C@@H](O)[C@@H](NCc1cccc2ccccc12)C(=O)O |
| 196 to 197 °C | CCOC(=O)c1ccc(N2CCN(Cc3c[nH]c4ncccc34)CC2)cc1 |
| 38 °C | CCCCCCCCCCCCCCCCOCC(CO)COC(c1ccccc1)(c1ccccc1)c1ccccc1 (stereo unspecified) |
| 161 to 165 °C | O=C(Nc1ccc(C2=CCN(C(=O)Nc3ccc(OCC(O)CO)cc3Cl)CC2)cc1)Nc1ccccc1F (stereo unspecified) |
| 205 to 208 °C | O=C(O)c1cn(C2CC2)c2cc(N3CCN(C(=O)OCCn4cccn4)CC3)c(F)cc2c1=O |
| 155 to 157 °C | COc1ccnc(CSc2nc3cc4c(cc3[nH]2)OCO4)c1OC |
| 175 to 184 °C | O=C(Nc1ccnc(C(=O)NO)c1)c1ccccc1 |
| 275 to 277 °C | O=C(NC1CCN(CCCOc2ccccc2-c2nnn[nH]2)CC1)c1ccccc1 |
| 128 to 130 °C | CC(C)OC(=O)NC(C(=O)N1CCCC1C(=O)O)C(C)(C)SC(C)C (stereo unspecified) |
| 200 to 202 °C | CC1(C)OC(=O)Nc2ccc(-c3sccc3C#N)cc21 |
| 133 to 134 °C | O=C(O)c1cccnc1NCCSCc1nccs1 |
| 167 to 168 °C | Cc1cc2c3c(ccn3-c3ccccc3C(N3CCN(C)CC3)=N2)c1 |
